# How the values were obtained:
# Test in all cases: cell viability (% survival relative to DMSO control, bortezomib = 0%); higher = less cytotoxic
# Settings in all cases: 72 h
# HL-60 = system: HL-60
# Outline: (§1)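 After 72 h at 37 °C with 5% CO2, cell viability in 384-well plates was measured by CellTiter-Glo luminescence. The plates held compounds pre-printed at 1, 10, 100, 1000 or 10000 nM in duplicate, and cells from 10 AML and 5 CML lines seeded at densities titrated to linear growth. Percent survival is the duplicate mean, normalised to vehicle as 100% and a 10 µM positive control as 0%.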
# K-562 = system: K-562
# Outline: as §1
# ML-2 = system: ML-2
# Outline: as §1
# MV4-11 = system: MV4-11
# Outline: as §1
Compound,cell viability (HL-60; 1 nM),cell viability (HL-60; 10 nM),cell viability (HL-60; 100 nM),cell viability (HL-60; 1000 nM),cell viability (HL-60; 10000 nM),cell viability (K-562; 1 nM),cell viability (K-562; 10 nM),cell viability (K-562; 100 nM),cell viability (K-562; 1000 nM),cell viability (K-562; 10000 nM),cell viability (ML-2; 1 nM),cell viability (ML-2; 10 nM),cell viability (ML-2; 100 nM),cell viability (ML-2; 1000 nM),cell viability (ML-2; 10000 nM),cell viability (MV4-11; 1 nM),cell viability (MV4-11; 10 nM),cell viability (MV4-11; 100 nM),cell viability (MV4-11; 1000 nM),cell viability (MV4-11; 10000 nM)
CC(Cc1ccc(O)c(O)c1)C(C)Cc1ccc(O)c(O)c1 (stereo not given) [Masoprocol],89%,81.2%,118%,90%,6.31%,87.2%,109%,105%,95.8%,76.7%,99.2%,103%,96.1%,101%,3.98%,108%,91.6%,92.5%,97.2%,9.84%
N[C@](CCCCB(O)O)(CCN1CCCCC1)C(=O)O [Arginase inhibitor 1],131%,104%,73.9%,106%,117%,120%,102%,93.1%,90.6%,88.4%,112%,93.9%,93.1%,93.4%,99.7%,101%,92.3%,103%,92.4%,84.9%
[N-]=[N+]=CC(=O)CC[C@H](N)C(=O)O [6-Diazo-5-oxo-L-norleucine],64.7%,83.2%,135%,97.5%,106%,70.8%,99.6%,99.5%,104%,92.5%,95.1%,95.3%,98.3%,116%,110%,78.2%,106%,108%,97.1%,105%
O=C(COc1ccc(C(=O)c2ccccc2)cc1)NC1CCN(Cc2ccccc2)CC1 [AdipoRon],102%,118%,81.9%,111%,70%,90.2%,105%,79.7%,104%,58.3%,84%,107%,94.5%,97.6%,65.9%,86.7%,92%,94.2%,91.9%,48.6%
CCN(CC)CCN(Cc1ccc(-c2ccc(C(F)(F)F)cc2)cc1)C(=O)Cn1c(SCc2ccc(F)cc2)nc(=O)c2c1CCC2 [Darapladib],101%,95.7%,101%,81.9%,-0.402%,99.1%,122%,81.6%,73.6%,-0.273%,102%,98.2%,88.9%,88.8%,-0.43%,88.5%,104%,87.8%,102%,-0.522%
O=C1Nc2ccccc2/C1=C\NCCc1ccc(O)c(O)c1 [AC1NZZMF],76.8%,102%,82.5%,96.8%,86.8%,90.1%,112%,99.7%,122%,96.6%,113%,111%,101%,95.4%,75.9%,113%,89.4%,93.8%,84.9%,75.7%
CCOC(=O)[C@@]1(CCCCCCOc2ccc(Cl)cc2)CO1 [Etomoxir],77.7%,74.7%,83.3%,98.5%,69.5%,113%,95.8%,86.5%,93.2%,71.8%,109%,109%,114%,87.6%,99.9%,105%,97.2%,99%,85.3%,79.3%
Cc1ccc(S(=O)(=O)NC2c3ccccc3Oc3ccccc32)cc1 [AH-7614],103%,112%,87.8%,94.5%,86.2%,92%,95.9%,89.9%,98.1%,76.4%,97.3%,99.2%,104%,104%,114%,94%,94.1%,100%,94.7%,93.3%
O=P(O)(O)C(O)(Cn1ccnc1)P(=O)(O)O [Zoledronic acid],84.3%,111%,105%,98.3%,111%,105%,101%,106%,98.6%,102%,80.5%,94.9%,92.6%,105%,102%,94.7%,104%,88.7%,101%,81.5%
c1ccc2c(c1)OCC(=C1NCCN1)O2 [Idazoxan],89.1%,80.3%,80%,97.2%,75.9%,80%,98.1%,90.7%,100%,90.9%,97.4%,97.9%,86.9%,94.2%,93.7%,82.3%,106%,80.6%,82.9%,89.1%
C[C@]12CC[C@H](O)CC1=CC[C@@H]1[C@@H]2CC[C@]2(C)C(c3cccnc3)=CC[C@@H]12 [Abiraterone],142%,97.7%,136%,80.3%,124%,109%,113%,107%,112%,89.4%,116%,97.2%,101%,118%,110%,96.4%,96.5%,107%,114%,99%
Cc1coc2c1C(=O)C(=O)c1c-2ccc2c(C)cccc12 [Tanshinone I],99%,105%,117%,105%,79.7%,98.6%,100%,106%,82.7%,79.8%,113%,114%,97.8%,103%,71.1%,101%,89.7%,108%,103%,97.2%
O=C(O)C(S)=Cc1c[nH]c2ccc(F)cc12,98.3%,103%,111%,66.7%,90.7%,91%,95.7%,90.1%,116%,85.9%,101%,98.6%,113%,111%,91.5%,96.2%,97.6%,81.7%,103%,83.6%
CC12CCC(O)CC1CCC1C2CCC2(C)C(C3=CC(=O)OC3)CCC12O (stereo not given) [Digitoxigenin],101%,105%,103%,1.05%,-1.85%,94.8%,106%,77.1%,3.12%,-1.21%,97.3%,97.5%,107%,0.616%,-1.47%,96.8%,120%,100%,1.01%,-1.41%
Sc1ncnc2nc[nH]c12 [6-mercaptopurine],144%,85.8%,118%,54.7%,15.2%,110%,88.9%,102%,39.9%,8.69%,111%,91.3%,87.9%,56.1%,13.5%,87%,85.5%,80.1%,27.3%,24.7%
C1CCc2nnc(C34CC5CC(CC(C5)C3)C4)n2CC1 [MERCK-544],94.7%,154%,103%,74.8%,129%,109%,117%,89.3%,103%,129%,101%,97.5%,93.5%,87.7%,96.6%,97.8%,100%,102%,87.3%,106%
Cl.OC[C@H]1NC[C@@H](O)[C@@H](O)[C@@H]1O [1-Deoxymannojirimycin hydrochloride],98.5%,79.5%,102%,124%,80.5%,93.7%,70.4%,104%,103%,91.6%,101%,90.6%,100%,110%,87.6%,102%,92.2%,99.3%,105%,80.8%
Nc1ncnc2c1ncn2[C@@H]1O[C@H](CSCC[C@H](N)C(=O)O)[C@@H](O)[C@H]1O [S-Adenosyl Homocysteine],103%,101%,115%,111%,74.9%,102%,104%,105%,104%,98.8%,102%,102%,101%,107%,103%,110%,113%,91.8%,97%,86.1%
C[C@]12O[C@H](C[C@]1(O)CO)n1c3ccccc3c3c4c(c5c6ccccc6n2c5c31)CNC4=O [Lestaurtinib],91.8%,77.6%,44.5%,17.5%,0.00654%,94.2%,94.3%,64.5%,13.5%,2.74%,107%,84.4%,61.4%,9.84%,0.0251%,73.6%,7.97%,-0.544%,0.552%,0.212%
O=C(O)CCc1ccc(NCc2cccc(Oc3ccccc3)c2)cc1 [GW9508],90%,94.3%,104%,103%,83.5%,109%,88.8%,100%,94.2%,120%,84.3%,103%,95.8%,112%,103%,98.2%,98.7%,103%,103%,106%
CC(/C=C1\SC(=S)N(CC(=O)O)C1=O)=C\c1ccccc1 [Epalrestat],120%,102%,109%,112%,115%,114%,102%,109%,99.5%,100%,99.7%,101%,99.8%,104%,112%,95.3%,85.8%,103%,102%,110%
C[C@H]1O[C@@H](O[C@H]2[C@@H](O)C[C@H](O[C@H]3[C@@H](O)C[C@H](O[C@H]4CC[C@@]5(C)[C@H](CC[C@@H]6[C@@H]5C[C@@H](O)[C@]5(C)[C@@H](C7=CC(=O)OC7)CC[C@]65O)C4)O[C@@H]3C)O[C@@H]2C)C[C@H](O)[C@@H]1O [Digoxin],104%,107%,-0.615%,-0.309%,-0.00704%,95.2%,107%,41.8%,-0.121%,0.146%,99%,109%,5.07%,-0.2%,-0.154%,110%,114%,4.71%,0.26%,0.435%
OCCN1CCN(CCCN2c3ccccc3Sc3ccc(Cl)cc32)CC1 [Perphenazine],97.8%,133%,92%,103%,18.8%,108%,97.3%,81.8%,92%,0.308%,99.6%,95.4%,96.6%,101%,34.4%,102%,96%,93.4%,92.8%,9.41%

# From the supplement of paper PMC8671470
